Assay results published in the supplement of paper PMC10307832.

Assays:
Experiment in all cases: relative viability (nuclei count vs DMSO), 5 days (fraction); higher = more cells survive
[1] = compound: C=CC(=O)Nc1cc(-n2c(=O)ccc3cnc4ccc(-c5ccc(NS(C)(=O)=O)cc5)cc4c32)ccc1C [BMX-IN-1] + CC(=O)Nc1cccc(-n2c(=O)n(C3CC3)c(=O)c3c(Nc4ccc(I)cc4F)n(C)c(=O)c(C)c32)c1 [Trametinib] (partner 0.02 µM)
How it was run: (§1)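 One day after seeding in 1536-well plates, lung cancer cell lines were dosed by pin tool. Dosing was either single-drug or a fixed anchor-drug dose plus five library-drug doses (not always all listed) in √10 steps. After 5 days, nuclei were stained in one fix-and-stain step and counted on 4× images, and relative viability is the nuclei count of treated wells over that of vehicle wells, given as the median of duplicate plates.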

[2] = compound: C=CCc1cccc(/C=N/NC(=O)CN2CCN(Cc3ccccc3)CC2)c1O [PAC-1] + CC(C)C[C@H](NC(=O)[C@H](Cc1ccccc1)NC(=O)c1cnccn1)B(O)O [Bortezomib] (partner 0.002 µM)
How it was run: as §1

[3] = compound: C=CCc1cccc(/C=N/NC(=O)CN2CCN(Cc3ccccc3)CC2)c1O [PAC-1] + NC(=O)Nc1cc(-c2cccc(F)c2)sc1C(=O)N[C@H]1CCCNC1 [AZD7762] (partner 0.2 µM)
How it was run: as §1

[4] = compound: C=CC(=O)N1CCC[C@@H](n2nc(-c3ccc(Oc4ccccc4)cc3)c3c(N)ncnc32)C1 [Ibrutinib] + CC(=O)Nc1cccc(-n2c(=O)n(C3CC3)c(=O)c3c(Nc4ccc(I)cc4F)n(C)c(=O)c(C)c32)c1 [Trametinib] (partner 0.02 µM)
How it was run: as §1

| Cell Line | relative viability ([1]; first compound 0.02 µM) | relative viability ([1]; first compound 0.2 µM) | relative viability ([1]; first compound 0.6325 µM) | relative viability ([1]; first compound 2 µM) | relative viability ([2]; first compound 0.02 µM) | relative viability ([2]; first compound 0.06325 µM) | relative viability ([2]; first compound 0.2 µM) | relative viability ([2]; first compound 2 µM) | relative viability ([3]; first compound 0.02 µM) | relative viability ([3]; first compound 0.06325 µM) | relative viability ([3]; first compound 0.2 µM) | relative viability ([3]; first compound 2 µM) | relative viability ([4]; first compound 0.005 µM) | relative viability ([4]; first compound 0.01581 µM) | relative viability ([4]; first compound 0.05 µM) | relative viability ([4]; first compound 0.1581 µM) | relative viability ([4]; first compound 0.5 µM) |
| --- | --- | --- | --- | --- | --- | --- | --- | --- | --- | --- | --- | --- | --- | --- | --- | --- | --- |
| NCI-H1755 | 0.703 | 0.81 | 0.853 | 0.695 | 0.99 | 0.961 | 0.938 | 0.907 | 0.45 | 0.45 | 0.426 | 0.415 | 0.761 | 0.796 | 0.796 | 0.793 | 0.746 |
| NCI-H1792 | 0.645 | 0.485 | 0.44 | 0.391 | 0.982 | 1.01 | 0.947 | 0.896 | 0.673 | 0.672 | 0.562 | 0.679 | – | 0.404 | 0.48 | 0.44 | 0.36 |
| NCI-H1915 | 0.326 | 0.302 | 0.519 | 0.317 | 0.995 | 0.964 | 0.907 | 1.02 | 0.724 | 0.681 | 0.546 | 0.695 | 0.324 | 0.295 | 0.28 | 0.292 | 0.283 |
| NCI-H1975 | 0.309 | 0.348 | 0.395 | 0.377 | 0.35 | 0.396 | 0.378 | 0.386 | 0.669 | 0.666 | 0.755 | 0.698 | 0.274 | 0.303 | 0.287 | 0.302 | 0.213 |
| NCI-H1993 | 0.531 | 0.588 | 0.464 | 0.56 | 0.975 | 1.08 | 1.15 | 1.09 | 0.829 | 0.797 | 0.748 | 0.837 | 0.487 | 0.571 | 0.518 | 0.617 | 0.398 |
| NCI-H2085 | 0.52 | 0.75 | 0.564 | 0.538 | 1.09 | 1.1 | 1.14 | 1.12 | 0.994 | 1 | 0.907 | 1.1 | 0.499 | 0.548 | 0.566 | 0.661 | 0.463 |
| NCI-H2087 | 0.204 | 0.174 | 0.214 | 0.218 | 0.739 | 0.838 | 0.702 | 0.95 | 1.36 | 1.4 | 1.09 | 1.44 | 0.166 | 0.196 | 0.199 | – | 0.2 |
| NCI-H2126 | 0.55 | 0.55 | 0.592 | 0.603 | 1.08 | 1.08 | 1.21 | 1.18 | 1.04 | 0.993 | 0.963 | 1.05 | 0.5 | 0.474 | 0.522 | 0.559 | 0.466 |
| NCI-H2347 | 0.295 | 0.291 | 0.322 | 0.292 | 1.07 | 0.912 | 1.08 | 0.875 | 0.825 | 0.756 | 0.675 | 0.902 | 0.283 | 0.228 | 0.37 | 0.245 | 0.239 |
| NCI-H2405 | 0.688 | 0.642 | 0.659 | 0.591 | 0.981 | 1.02 | 0.959 | 0.977 | 0.648 | 0.828 | 0.86 | 0.802 | 0.546 | 0.558 | – | – | 0.448 |
| NCI-H3122 | 0.228 | 0.253 | 0.238 | 0.272 | 1.03 | 1.05 | 1 | 0.977 | 0.896 | 0.906 | 0.93 | 0.988 | 0.23 | 0.244 | 0.251 | 0.223 | 0.221 |
| PC-3 [JPC-3] | 0.697 | 0.712 | 0.738 | 0.677 | 0.83 | 0.789 | 0.774 | 0.877 | 0.848 | 0.985 | 0.883 | 0.877 | 0.617 | 0.592 | 0.617 | 0.754 | 0.456 |
| PC-14 | 0.814 | 1.01 | 0.927 | 0.793 | 0.937 | 0.953 | 0.754 | 0.927 | 0.382 | 0.322 | 0.45 | 0.343 | 0.735 | 0.647 | 0.643 | 0.818 | 0.254 |
| RERF-LC-KJ | 0.967 | 0.897 | 0.867 | 0.909 | 1.15 | 1.16 | 1.08 | 1.17 | 1.08 | 0.883 | 0.934 | 1.01 | 0.956 | 0.815 | 1.09 | 0.822 | 0.742 |
